Data: ChEMBL document CHEMBL4041472, “Curacin E from the Brittle Star Ophiocoma scolopendrina” (J Nat Prod, 2016)
The source made the active and inactive calls. The calls are words filed in the database; no cut-off is given here.

Assays:
[1] = tested on: P388; experiment: Cytotoxicity against mouse P388 cells assessed as reduction in cell viability at >= 20 nM after 96 hrs by MTT assay; assay type: functional, cell-based
[2] = molecular target: T1, NAD-dependent protein deacetylase sirtuin-1 (Homo sapiens) (UniProt Q96EB6); experiment: Inhibition of human SIRT1 expressed in Escherichia coli BL21(DE3) up to 50 uM using Ac-RHKK(Ac)-MCA as substrate after 60 mins in presence of NAD by fluorescence assay
T1 sequence (whole entry): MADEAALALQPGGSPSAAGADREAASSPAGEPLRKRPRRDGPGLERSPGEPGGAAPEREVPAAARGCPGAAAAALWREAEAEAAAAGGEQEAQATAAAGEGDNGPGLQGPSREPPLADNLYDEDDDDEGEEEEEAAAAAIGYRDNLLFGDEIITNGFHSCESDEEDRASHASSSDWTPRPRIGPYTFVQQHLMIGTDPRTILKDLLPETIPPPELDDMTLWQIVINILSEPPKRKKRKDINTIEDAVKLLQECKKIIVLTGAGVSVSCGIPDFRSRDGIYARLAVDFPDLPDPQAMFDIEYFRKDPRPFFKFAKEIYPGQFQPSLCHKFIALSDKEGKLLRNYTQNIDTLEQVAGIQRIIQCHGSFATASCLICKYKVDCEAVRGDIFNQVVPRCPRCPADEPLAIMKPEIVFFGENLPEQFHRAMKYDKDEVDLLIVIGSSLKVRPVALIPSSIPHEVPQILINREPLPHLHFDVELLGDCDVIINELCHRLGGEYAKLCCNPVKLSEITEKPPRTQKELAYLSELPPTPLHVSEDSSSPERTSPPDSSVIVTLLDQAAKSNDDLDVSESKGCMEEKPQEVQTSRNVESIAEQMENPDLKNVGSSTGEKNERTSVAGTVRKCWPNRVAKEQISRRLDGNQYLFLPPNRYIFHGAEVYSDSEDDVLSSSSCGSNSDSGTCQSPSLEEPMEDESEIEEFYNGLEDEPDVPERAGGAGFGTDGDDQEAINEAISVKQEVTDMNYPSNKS

[3] = molecular target: T2, Protein deacetylase HDAC6 (Mus musculus) (UniProt Q9Z2V5); experiment: Inhibition of mouse FLAG-tagged HDAC6 expressed in human 293T cells coexpressing HDA2 up to 50 uM using Ac-KGLGK(Ac)-MCA as substrate after 30 mins by fluorescence assay; assay type: cell-based
T2 sequence (whole entry): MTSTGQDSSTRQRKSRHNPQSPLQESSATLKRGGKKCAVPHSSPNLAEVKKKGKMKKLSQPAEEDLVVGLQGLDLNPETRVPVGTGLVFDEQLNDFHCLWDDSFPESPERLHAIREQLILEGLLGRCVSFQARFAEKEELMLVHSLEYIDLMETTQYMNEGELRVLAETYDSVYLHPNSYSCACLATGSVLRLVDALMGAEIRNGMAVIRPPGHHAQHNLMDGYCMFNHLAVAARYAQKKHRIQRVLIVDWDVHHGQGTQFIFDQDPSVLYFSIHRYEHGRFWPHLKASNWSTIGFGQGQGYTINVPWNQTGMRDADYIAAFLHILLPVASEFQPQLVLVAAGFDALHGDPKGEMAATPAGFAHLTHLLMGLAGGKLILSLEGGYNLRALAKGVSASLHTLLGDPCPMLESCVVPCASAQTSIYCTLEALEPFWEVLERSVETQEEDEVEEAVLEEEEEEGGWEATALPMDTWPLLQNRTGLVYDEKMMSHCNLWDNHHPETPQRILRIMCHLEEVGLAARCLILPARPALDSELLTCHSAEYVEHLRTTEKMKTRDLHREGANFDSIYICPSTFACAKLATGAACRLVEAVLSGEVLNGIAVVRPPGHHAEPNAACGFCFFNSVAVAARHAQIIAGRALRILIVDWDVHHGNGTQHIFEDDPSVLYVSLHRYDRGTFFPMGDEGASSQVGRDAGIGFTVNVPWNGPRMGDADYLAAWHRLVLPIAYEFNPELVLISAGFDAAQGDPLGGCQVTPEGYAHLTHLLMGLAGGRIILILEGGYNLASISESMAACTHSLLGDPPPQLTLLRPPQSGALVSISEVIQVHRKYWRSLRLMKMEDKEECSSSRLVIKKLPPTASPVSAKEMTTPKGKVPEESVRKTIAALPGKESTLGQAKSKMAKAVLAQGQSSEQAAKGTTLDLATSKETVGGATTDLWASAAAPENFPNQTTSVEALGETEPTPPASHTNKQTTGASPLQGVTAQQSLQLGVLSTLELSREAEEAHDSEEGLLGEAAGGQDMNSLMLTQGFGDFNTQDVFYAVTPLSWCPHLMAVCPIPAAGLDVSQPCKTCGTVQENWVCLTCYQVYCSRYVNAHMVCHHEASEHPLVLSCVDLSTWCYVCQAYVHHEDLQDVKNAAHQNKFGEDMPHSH

[4] = molecular target: Histone deacetylase 1 (Homo sapiens) (UniProt Q13547); experiment: Inhibition of human FLAG-tagged HDAC1 expressed in human 293T cells up to 50 uM using Ac-KGLGK(Ac)-MCA as substrate after 30 mins by fluorescence assay
Chain of Histone deacetylase 1 (Homo sapiens) (Q13547 whole entry): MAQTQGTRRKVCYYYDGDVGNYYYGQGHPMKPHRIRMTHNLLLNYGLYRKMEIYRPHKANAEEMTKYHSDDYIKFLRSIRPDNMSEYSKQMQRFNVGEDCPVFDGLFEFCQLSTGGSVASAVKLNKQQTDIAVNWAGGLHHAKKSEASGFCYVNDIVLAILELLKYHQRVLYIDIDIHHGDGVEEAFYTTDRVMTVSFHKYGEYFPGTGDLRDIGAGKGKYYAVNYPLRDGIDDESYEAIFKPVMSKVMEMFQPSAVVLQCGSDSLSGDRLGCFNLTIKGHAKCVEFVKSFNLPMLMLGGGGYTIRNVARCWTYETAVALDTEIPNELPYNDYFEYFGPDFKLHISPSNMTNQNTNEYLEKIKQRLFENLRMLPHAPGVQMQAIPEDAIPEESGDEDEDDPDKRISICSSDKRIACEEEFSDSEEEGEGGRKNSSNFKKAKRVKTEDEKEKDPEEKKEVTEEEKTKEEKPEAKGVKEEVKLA

inhibition [2]: inactive | inhibition [3]: inactive | inhibition [4]: inactive
Compound: CCC(=O)CC(CC/C=C/C=C/CC/C=C\[C@@H]1CSC([C@@H]2C[C@@H]2C)=N1)OC (some centres undefined)
Activity [1]: Active
